Reference: patent US4820717A, “Antimicrobial aromatic derivatives substituted by an (omega amino) alkanol group and compositions containing them” (priority 1985, dated 1989)
Values after ≈ are worked out from the molar mass of the structure shown.

Tests used:
Candida parakruzei 3918 = assay: Antifungal activity (MFC), strain 3; assay type: cell-based; settings: 20 min; yeast strain 3; read-out: Minimum fongicidal concentration (MFC)
Source text: (§1) A bacterial inoculum is placed in contact with different dilutions of the product to be tested, and this for a limited period of time. At the end of contact, an aliquot part of the mixture bacterial suspension/product is deposited on the surface of an agar culture medium containing an agent neutralizing the antibacterial activity of the product. The bactericidal concentration retained is the smallest concentration of the product from which bacteria stop growing. Said concentration is expressed in μg/ml.
(§2) Plates equipped with cupules receive different dilutions of the product to be analyzed. These dilutions are placed in contact with the different bacterial suspensions by means of a multiple-center inoculator. After 20 minutes of contact, aliquot parts are transferred by means of said inoculator on the surface of an agar medium (TSA) in Petri dishes, containing an activity-neutralizing agent, namely 20 g of lubrol W, 25 g of Tween 80 and 2.5 g of sodium thiosulfate in 1000 ml of TSA (Difco). The efficiency of the neutralizing agent is controlled for each product to be analyzed by depositing on the surface of the culture medium an aliquot part of the dilution of the product to be analyzed. After drying, the corresponding inoculum is deposited in the same place. An inoculum control is performed on an agar medium with or without neutralizing agent. Readings are taken after 48 hours of incubation at 37° C.
(§3) The antifungal activity of the products according to the invention was also determined with the aforedescribed method.
(§4) The fungal strains selected for the analysis are:
3--Candida parakruzei 3918;
(§5) These strains are supported on a Sabouraud Dextrose agar medium commercialized by Difco; the technique used is the same as that used in the analysis of the antibacterial activity. After 48 hours of culture at 37° C., the microbial growth is collected with glass beads and 5 ml of diluent containing 1 g of tryptone and 8.5 g of sodium chloride in 1000 ml of distilled water; 5 ml of the diluent are then added. […] A 1/100th dilution of this suspension, observed between slides under a microscope 40-lens, should show 10 cells per frame, this corresponding to 1,000,000 yeasts per ml.

[1] = system: Streptococcus faecalis CNCM 5855; assay: Bactericidal activity (MBC), strain 4; assay type: cell-based; settings: Enterococcus faecalis, CNCM5855, 20 min; strain 4, 20 minutes of contact; read-out: Minimum bactericidal concentration (MBC)
Source text: (§6) The bactericidal activity of the products according to the invention has been analyzed on various strains by the method described hereafter:
as §1
(§7) The bacterial strains selected for the analysis are:
4--Streptococcus faecalis CNCM 5855;
(§8) The second strain is supported on a Worgel Fergusson medium, the other strains being supported on Tryptic Soy Agar-Difco (TSA) commercialized by Difco.
(§9) After a 24-hour culture period at 37° C., the microbial growth is collected by means of glass beads and of 10 ml of diluent containing 1 g of tryptone and 8.5 g of sodium chloride in 1000 ml of distilled water. The formed suspension is stirred and the percentage of light transmission at 620 nm is measured with a spectrophotometer:
(§10) The bacterial inoculum corresponds to a 1/20th dilution of this bacterial suspension.
as §2

[2] = system: Pseudomonas aeruginosa CNCM A22; assay: Bactericidal activity (MBC), strain 3; assay type: cell-based; settings: CNCMA22, 20 min, strain 3, 20 minutes of contact, read-out: Minimum bactericidal concentration (MBC)
Source text: as §6, §1, §7
3--Pseudomonas aeruginosa CNCM A22;
as §8, §9, §10, §2

[3] = system: Candida albicans CNCM 1180; assay: Antifungal activity (MFC), strain 1; assay type: cell-based; settings: 20 min; yeast strain 1; read-out: Minimum fongicidal concentration (MFC)
Source text: as §1, §2, §3, §4
1--Candida albicans CNCM 1180;
as §5

[4] = system: Staphylococcus aureus CNCM 53154; assay: Bactericidal activity (MBC), strain 5; assay type: cell-based; settings: CNCM53154, 20 min, strain 5, 20 minutes of contact, read-out: Minimum bactericidal concentration (MBC)
Source text: as §6, §1, §7
5--Staphylococcus aureus CNCM 53154.
as §8, §9, §10, §2

[5] = system: Torulopsis glabrata 072023; assay: Antifungal activity (MFC), strain 4; assay type: cell-based; settings: 20 min; yeast strain 4; read-out: Minimum fongicidal concentration (MFC)
Source text: as §1, §2, §3, §4, §5

Candida tropicalis 3834 = assay: Antifungal activity (MFC), strain 2; assay type: cell-based; settings: 20 min; yeast strain 2; read-out: Minimum fongicidal concentration (MFC)
Source text: as §1, §2, §3, §4
2--Candida tropicalis 3834;
as §5

[6] = system: Escherichia Coli CNCM 54125; assay: Bactericidal activity (MBC), strain 1; assay type: cell-based; settings: 20 min, strain 1, 20 minutes of contact, read-out: Minimum bactericidal concentration (MBC)
Source text: as §6, §1, §7
1--Escherichia Coli CNCM 54125;
as §8, §9, §10, §2

[7] = system: Encapsulated klebsiella pneumoniae R030; assay: Bactericidal activity (MBC), strain 2; assay type: cell-based; settings: 20 min, strain 2, 20 minutes of contact, read-out: Minimum bactericidal concentration (MBC)
Source text: as §6, §1, §7
2--Encapsulated klebsiella pneumoniae R030;
as §8, §9, §10, §2

[8] = Acute toxicity by oral route in mice; settings: mouse, in vivo, per os, male CD1 mice, 14 days observation
Protocol: Acute toxicity was tested by oral route in mice. This test was carried out with male mice of CD1 strain, obtained from the Charles Reever breeding farm. Each batch was composed of 5 animals of body weight varying between 24 and 30 g kept in the same cage. The animals were kept fasting for 6 hours before the treatment. For every test, the product, placed in suspension in a 10% solution of gum arabic, was administered by forcible feeding with an oesophageal probe. Food was then served to the animals 4 hours after the forcible feeding and the animals were kept under observation for a period of 14 days after the administration. During that period, the death rate is recorded for each batch of animals used in the experiment and, wherever possible, the LD50 is determined by the method of J. T. Litchfield and F. Wilcoxon, J. Pharmacol. 1949, 95, 99-113.
The results are given in mg of substance tested per kg of body weight. They are compiled in Table III below.

| SMILES | MFC (Candida parakruzei 3918) [µg/mL] | MBC [1] [µg/mL] | MBC [2] [µg/mL] | MFC [3] [µg/mL] | MBC [4] [µg/mL] | MFC [5] [µg/mL] | MFC (Candida tropicalis 3834) [µg/mL] | MBC [6] [µg/mL] | MBC [7] [µg/mL] | LD50 at 336 h [8] [mg/kg] |
| --- | --- | --- | --- | --- | --- | --- | --- | --- | --- | --- |
| OCC(CCCN1CCCCC1)c1cccc2ccccc12 (stereo not drawn) [SR 43 087 A] | 1000 (≈ 3360 µM) | 2000 (≈ 6720 µM) | 800 (≈ 2690 µM) | 1000 (≈ 3360 µM) | 800 (≈ 2690 µM) | 5000 (≈ 16800 µM) | 1000 (≈ 3360 µM) | 1500 (≈ 5040 µM) | 1000 (≈ 3360 µM) |  |
| CN1CCN(CCC(CO)c2cccc3ccccc23)CC1 (stereo not drawn) [SR 43 291A, reference compound] |  | > 10000 | 1000 (≈ 3350 µM) |  | 8000 (≈ 26800 µM) |  |  | 5000 (≈ 16800 µM) | 3000 (≈ 10100 µM) |  |
| OCC(CCCCCN1CCC(Cc2ccccc2)CC1)c1cccc2ccccc12 (stereo not drawn) [SR 43 941 A] | 250 (≈ 602 µM) | 50 (≈ 120 µM) | 50 (≈ 120 µM) | 100 (≈ 241 µM) | 50 (≈ 120 µM) | 250 (≈ 602 µM) | 100 (≈ 241 µM) | 50 (≈ 120 µM) | 50 (≈ 120 µM) |  |
| OCC(CCN1CCCCCC1)c1c(Cl)cccc1Cl (stereo not drawn) [SR 43 703 A] |  | 800 (≈ 2530 µM) | 400 (≈ 1260 µM) |  | 1000 (≈ 3160 µM) |  |  | 600 (≈ 1900 µM) | 600 (≈ 1900 µM) |  |
| CCN(CC)CCCCCCCCCC(CO)c1cccc2ccccc12 (stereo not drawn) [SR 43 826 A] | 50 (≈ 135 µM) | 50 (≈ 135 µM) | 50 (≈ 135 µM) | 250 (≈ 676 µM) | 50 (≈ 135 µM) | 250 (≈ 676 µM) | 50 (≈ 135 µM) | 50 (≈ 135 µM) | 50 (≈ 135 µM) |  |
| CN(C)CCCC(CO)c1cccc2ccccc12 (stereo not drawn) [SR 42 994 A] | 500 (≈ 1940 µM) | 1000 (≈ 3890 µM) | 1000 (≈ 3890 µM) | 500 (≈ 1940 µM) | 1000 (≈ 3890 µM) | 5000 (≈ 19400 µM) | 500 (≈ 1940 µM) | 1000 (≈ 3890 µM) | 800 (≈ 3110 µM) | 750 to 1000 |
| Cl.OCC(CCN1CCC(Cc2ccccc2)CC1)c1ccc(Cl)c(Cl)c1 (stereo not drawn) [SR 43 969 A, 4-(4-benzylpiperidino)-2-(3,4-dichlorophenyl)butanol hydrochloride] | 100 | 100 | 500 | 50 | 50 | 500 | 50 | 50 | 100 |  |
| OCC(CCN1CCCC1)c1cccc2ccccc12 (stereo not drawn) [SR 43 063 A] |  | 2000 (≈ 7420 µM) | 1000 (≈ 3710 µM) |  | 1000 (≈ 3710 µM) |  |  | 2000 (≈ 7420 µM) | 1000 (≈ 3710 µM) | 300 to 400 |
| OCC(CCN1CCC(Cc2ccccc2)CC1)c1ccccc1 (stereo not drawn) [SR 43 705 A] |  | 500 (≈ 1550 µM) | 500 (≈ 1550 µM) |  | 500 (≈ 1550 µM) |  |  | 500 (≈ 1550 µM) | 500 (≈ 1550 µM) |  |
| CC1CCN(CCCC(CO)c2cccc3ccccc23)CC1 (stereo not drawn) [SR 43 290 A] |  | 4000 (≈ 12800 µM) | 800 (≈ 2570 µM) |  | 800 (≈ 2570 µM) |  |  | 1500 (≈ 4820 µM) | 800 (≈ 2570 µM) |  |
| Cc1cccc(C(CO)CCN2CCC(Cc3ccccc3)CC2)c1 (stereo not drawn) [SR 44 226 A] |  | 1000 (≈ 2960 µM) | 500 (≈ 1480 µM) |  | 2000 (≈ 5930 µM) |  |  | 1000 (≈ 2960 µM) | 1000 (≈ 2960 µM) |  |
| CCC(CO)(CCN1CCCCC1)c1cccc2ccccc12.Cl (stereo not drawn) [SR 43 245 A, 2-ethyl-2-(1-naphthyl)-4-piperidino-butanol hydrochloride] |  | 1500 | 800 |  | 1000 |  |  | 1500 | 1000 |  |
| OCC(CCN1CCCCCC1)c1ccc(Cl)cc1Cl (stereo not drawn) [SR 43 802 A] |  | 2000 (≈ 6320 µM) | 1000 (≈ 3160 µM) |  | 5000 (≈ 15800 µM) |  |  | 1000 (≈ 3160 µM) | 1000 (≈ 3160 µM) |  |
